Results reported in article PMC11729550, “Discovery of indole analogue Tc3 as a potent pyroptosis inducer and identification of its combination strategy against hepatic carcinoma” (Theranostics, 2025).

Tests used:
AML-12 cells [1] = experiment: Dose-response growth inhibition of liver parenchymal cells; assay type: cell-based; settings: AML12; mouse liver parenchymal cells
From the text: (§1) The cells were counted with hemocytometer.
(E) Dose-response curves for Tc3 inhibiting the growth of AML-12 cells.

AML-12 cells [2] = experiment: Flow cytometry of propidium iodide and annexin V-FITC staining; assay type: cell-based, mouse
From the text: Figure 2 Cytotoxic effect of Tc3 on human hepatic carcinoma cells in vitro. […] (B-C) Cell viability rates of HepG2 (B) and SK-Hep1 (C) cells treated with Tb7, Tc1, Tc3, Tc4 and other clinical chemotherapy drugs. (D-F) Flow cytometry of propidium iodide and annexin V-fluorescein isothiocyanate (FITC)-stained HepG2 cells (D). Statistical analysis of the early apoptotic cells (E) and late apoptotic cells (F). (G-I) Flow cytometry of propidium iodide and annexin V-fluorescein isothiocyanate (FITC)-stained AML-12 cells (G). Statistical analysis of the early apoptotic cells (H) and late apoptotic cells (I). Data are presented as mean ± SD of three independent biological experiments. *p < 0.05, **p < 0.01, ***p < 0.001 and ****p < 0.0001, ns, no significant.

in vitro = settings: microsomes
Protocol: The reaction media contained liver microsomes (0.5 mg/mL), 1.0 mM β-nicotinamide adenine dinucleotide phosphate (β-NADPH), 3 mM MgCl2 phosphate buffer. Microsomal suspensions were pre-incubated with Tc3 for 3 min at 37℃. The reaction was initiated with the addition of β-NADPH and samples were collected at 0, 5, 15, 30 and 60 min. The negative control was excluded of β-NADPH. Midazolam was incubated similarly as a positive control substrate. At each time point, an aliquot was mixed acetonitrile. Samples were centrifuged and then supernatant was mixed with ultrapure water for LC-MS/MS analysis.

pLKO.1 HepG2 cells = experiment: Dose-response growth inhibition, control knockdown cells; assay type: cell-based; settings: Homo sapiens
Protocol: as §1
(§2) Briefly, the pLKO.1 or shRNA plasmids with psPAX2 and PMD2.G were transfected into HEK-293T cells via DNA transfection reagent (SignaGen®Laboratories, SL100688). And the cell supernatant contained Lenti-virus was collected after 24 hours. The Lenti-virus of shRNAs were used to infect the hepatic carcinoma cells and the stable-transfection cell lines were screened by puromycin (1 μg/mL) (Solarbio, P8230).

shDFNA5 HepG2 cells = experiment: Dose-response growth inhibition, GSDME knockdown cells; assay type: cell-based; settings: Homo sapiens
Protocol: as §1, §2

HepG2 cells = experiment: RNA sequencing analysis; assay type: cell-based, human; settings: HepG2, 4 μM, 24h, versus DMSO
Protocol: HepG2 cells were treated with dimethyl sulfoxide (DMSO) or Tc3 (4 μM) for 24h. And the total RNA was isolated using TRIzol (Solarbio, R1100). Next, the samples were processed and the RNA libraries were constructed by APTBIO company (Shanghai, China). Paired-end reads were aligned to a reference genome index which created using HISAT2, with read assignments to each gene quantified with feature counts. Gene expression was quantified using Transcripts Per Million (TPM). We identified Differentially Expressed Genes (DEGs) using the DESeq2 package in R, defining DEGs as those with an absolute log2 fold change greater than 1 and an adjusted p-value less than 0.05. We performed Gene Ontology (GO) and KEGG pathway enrichment analyses using the "cluster Profiler" package in R. GO terms and KEGG pathways with an adjusted P-value less than 0.05 were statistically significant. Our results were visualized using the ggplot2 and fact extra packages in R.

Hepa1-6 CDXs = experiment: Anti-PD-1 antibody synergistic effect in vivo; settings: C57 BL/6N mice
From the text: (§3) Balb/c nude mice (female, 6-week-old) were subcutaneously injected with 2 × 10^6 HepG2 cells on the left and right flanks to construct cell-derived xenografts (CDXs). The patient-derived xenografts (PDXs) samples were gifts from Dr Changliang Shan of Nankai University. C57 BL/6N mice (female, 5-week-old) were subcutaneously injected with 2 × 10^6 Hepa1-6 cells mixed with matrigel (ABW, 0827265) on the left and right flanks. The mice were inoculated with hepatic carcinoma CDXs or PDXs for at least four days, and treated (i.p.) by vehicle and Tc3. […] Tumor volume = 4π/3 × (Length/2) × (Width/2)^2. All animal experiments were carried out in accordance with the recommendations of Requirements of the Ethical Review System of Biomedical Research Involving Human by National Health and Family Planning Commission of China and Nankai University Ethics Committee with written informed consent complying with the Declaration of Helsinki (IAEC ID: 2023-STDWLL-000249).
The CDI value of tumor weight was calculated using formula mentioned before.

hepatocarcinoma PDXs = experiment: Hepatocarcinoma PDXs treatment; assay type: in vivo, Balb/c nude mice; settings: 20 mg/kg and 40 mg/kg i.p. ten times, day 20
From the text: as §3

[3] = tested on: HepG2, SK-Hep1, and PLC-PRF5 cells; experiment: Cell proliferation assays (growth curve, colony formation); assay type: cell-based, human; settings: 0-4 μM
Protocol: For colony formation, hepatic carcinoma cells were seeded in 6-well plates and treated with Tc3 for almost 10 days, and the cell colonies were photographed for statistical analysis.

SK-Hep1 cells = experiment: Anti-tumor activity assay (IC50 value), cells counted after three days; settings: Homo sapiens, SK-HEP1, 72 h, read-out: IC50 SK-Hep1
Protocol: For half maximal inhibitory concentrations (IC50) analysis, the hepatic carcinoma cells (HepG2, SK-Hep1 and PLC-PRF5) were seeded in 24-well plates respectively, then treated with drugs at concentration gradient for three days. The cells were counted with hemocytometer. […] A is the cell quantity of the control group and B is the cell quantity of the drug treated group. The cell inhibition rate was transformed using its logarithm. And the drug IC50 value were calculated by Graphpad Prsim 9 software with curve fitting of the drug concentration and log (cell inhibition rate).

Question: Which IC50 (AML-12 cells [1]) does the source give for `CC(C)[C@H](N)C(=O)NCCCn1cc(/C=C2\S/C(=N\c3ccc(N4CCOCC4)cc3)N(Cc3ccc(F)cc3)C2=O)c2ccccc21` [Tc3] here?
Answer: Its IC50 is 6.14 µM.

Question: What about the “cell death by annexin V / propidium iodide flow cytometry” value (AML-12 cells [2]) of the same compound?
Answer: The value was “not observed”.

Question: What about the half-life at 1 μM (in vitro; human) of the same compound?
Answer: Its half-life at 1 μM is 0.825 h.

Question: And the microsomal CLint at 1 μM (in vitro; human)?
Answer: Its microsomal CLint at 1 μM is 28 µL/min/mg.

Question: What about the half-life at 1 μM (in vitro; mouse) of the same compound?
Answer: Its half-life at 1 μM is 1.93 h.

Question: What about the microsomal CLint at 1 μM (in vitro; mouse) of the same compound?
Answer: The microsomal CLint at 1 μM was 12 µL/min/mg.

Question: What about the IC50 (pLKO.1 HepG2 cells) of the same compound?
Answer: Its IC50 is 2.22 µM.

Question: What about the IC50 (shDFNA5 HepG2 cells) of the same compound?
Answer: Its IC50 is 4.77 µM.

Question: What about the “Number of down-regulated gene” value (HepG2 cells) of the same compound?
Answer: The value was 38.

Question: And the “Number of up-regulated gene” value (HepG2 cells)?
Answer: The value was 182.

Question: And the “number of DEGs” value (HepG2 cells)?
Answer: Its value is 220.

Question: What about the “damage to liver, spleen, kidney and small intestine (pathology)” value (Hepa1-6 CDXs; 10 mg/kg) of the same compound?
Answer: Its value is “did not cause significant damage”.

Question: And the “tumor growth of Hepa1-6 CDXs compared to control groups” value (Hepa1-6 CDXs; i.p., Tc3 10 mg/kg, anti-PD-1 10 mg/kg)?
Answer: The value was “significantly inhibited tumor growth”.

Question: And the “tumor size and weight of PDXs” value (hepatocarcinoma PDXs)?
Answer: The value was “significantly reduced the tumor size and weight”.

Question: What about the “tumor proliferation (growth curve, colony formation)” value [3] of the same compound?
Answer: The value was “significantly inhibited tumor proliferation”.

Question: What about the IC50 (SK-Hep1 cells) of the same compound?
Answer: Its IC50 is 1.64 µM.
